{"source": "patent US11834431B2", "about": "“Crystals of cyclic amine derivative and pharmaceutical use thereof” (Toray Industries, Inc., priority 2016, dated 2023)", "key": {"[1]": {"system": "fibromyalgia model rats", "test": "Analgesic effect on allodynia in fibromyalgia model rats (von Frey, 50% response threshold)", "format": "in vivo, rat", "settings": "measured 3 hours after administration, Day 7, compared to negative control group", "description": "The analgesic effect of the crystal of compound (I) or the pharmacologically acceptable salt thereof against fibromyalgia syndrome was evaluated using fibromyalgia model rats (Sluka et al., Journal of Pharmacology and Experimental Therapeutics, 2002, vol. 302, pp. 1146-1150; Nagakura et al., Pain, 2009, vol. 146, pp. 26-33; Sluka et al., Pain, 2009, vol. 146, pp. 3-4). Form A crystal of compound (I) was used as a crystal of compound (I) or the pharmacologically acceptable salt thereof for evaluation.\nThe above model rats were prepared as follows. In experiments, 6-to 7-week-old SD male rats were used for 5 or 6 cases per group. 100 μL of acidic physiological saline adjusted to pH 4.0 was administered twice to the gastrocnemius muscle of the right hind paw of each rat (the day of the administration of acidic physiological saline was defined as Day 1 after the start of the experiment, and single dose administrations were carried out on Days 1 and 6 after the start of the experiment) under inhalation anesthesia with isoflurane. The thus prepared group was determined to be an acidic physiological saline group. As a control for the model, a group treated with a physiological saline instead of an acidic physiological saline was determined to be a physiological saline group.\nAllodynia observed in fibromyalgia model rats was measured using a von Frey filaments according to a method described in a known publication (Chaplan et al., Journal of Neuroscience Methods, 1994, vol. 53, pp. 55-63) and a 50% response threshold (g) was determined. On Day 7 after the start of the experiment, allodynia was measured 3 hours after oral administration of Form A crystal of compound (I), and the analgesic effect was evaluated. Allodynia of the acidic physiological saline group was measured before oral administration of Form A crystal of compound (I). […] Allodynia was measured 3 hours after the oral administration of the crystal of compound (I), and the analgesic effect was evaluated. […]"}, "[2]": {"system": "spinal nerve ligation model rats (neuropathic pain model rats)", "test": "Analgesic effect on allodynia in spinal nerve ligation model rats (von Frey, 50% response threshold)", "format": "in vivo, rat", "settings": "measured 3 hours after administration, 8 days after ligation, compared to negative control group", "description": "Analgesic effects of the crystal of compound (I) or the pharmacologically acceptable salt thereof upon neuropathic pain were evaluated using spinal nerve ligation model rats (Kim and Chung, Pain, 1992, vol. 50, p. 355). Form A crystal of compound (I) was used as a crystal of compound (I) or the pharmacologically acceptable salt thereof for evaluation.\nThe above model rats were prepared as follows. In experiments, 6-to 7-week-old SD male rats were used for 5 to 7 cases per group, and the lumbar skin and muscle of each rat were dissected to expose the L5 and L6 […] under inhalation anesthesia with isoflurane. After ligating the L5 and L6 spinal nerves with silk suture, the wound of each rat was sutured. Thus, a nerve ligation group was prepared. The group in which the nerve was exposed but not ligated was determined to be a sham surgery group.\nAllodynia observed in spinal nerve ligation model rats was measured using a von Frey filaments according to a method described in a known publication (Chaplan et al., J. Neurosci. Methods, 1994, vol. 53, p. 55) and a 50% response threshold (g) was determined. Eight days after the ligation surgery, allodynia of the nerve ligation group was measured before oral administration of Form A crystal of compound (I). Rats with a 50% response threshold (average value of the right hind paw and the left hind paw) of 2 g to less than 6 g were considered to have developed allodynia. The rats were divided as neuropathic pain model rats into groups such that there was no significant difference in the 50% response threshold between groups. Allodynia was measured 3 hours after the oral administration of Form A crystal of compound (I), and the analgesic effect was evaluated. Pregabalin was used as a positive control.\nForm A crystal of compound (I) was dissolved in water for injection (distilled water) to result in concentrations of 5, 10, and 20 mg/mL, and orally administered in a dose volume of 1 mL per kg body weight. Pregabalin was dissolved in water for injection (distilled water) to result in a concentration of 10 mg/mL and orally administered in a dose volume of 1 mL per kg of body weight. Water for injection (distilled water) was orally administered to the sham surgery group. A group in which water for injection (distilled water) was orally administered to rats in the nerve ligation group was defined as a negative control group.\nThe horizontal axis represents the solution to be administered in each group, namely, the nerve ligation group or sham surgery group, and the vertical axis represents the 50% response threshold (g) (mean±standard error, n=5 to 7). […]"}, "[3]": {"test": "Evaluation of storage stability of Form A crystal, 6 months (HPLC purity, powder X-ray diffraction, TG-DTA)", "format": "physicochemical"}, "[4]": {"settings": "Storage test 1: 25° C., relative humidity 60%, open state"}, "[5]": {"settings": "Storage test 2: 40° C., relative humidity 75%, airtight state"}, "[6]": {"settings": "Storage test 3: 60° C., airtight state"}, "[7]": {"settings": "any of storage tests 1 to 3, 6 months"}}, "data": [{"molecule": "CN(C)C1CCN(C(=O)C[C@H](O)c2nccn2C)CC1", "note": "[Form A crystal, (S)-1-(4-(dimethylamino)piperidin-1-yl)-3-hydroxy-3-(1-methyl-1H-imidazol-2-yl)propan-1-one]", "values": [{"measurement": "improvement of allodynia (50% response threshold)", "setting": "[1]; oral 1 mg/kg", "value": "significant improvement"}, {"measurement": "improvement of allodynia (50% response threshold)", "setting": "[1]; oral 10 mg/kg", "value": "significant improvement"}, {"measurement": "improvement of allodynia (50% response threshold)", "setting": "[2]; oral 5 mg/kg", "value": "significant improvement"}, {"measurement": "improvement of allodynia (50% response threshold)", "setting": "[2]; oral 10 mg/kg", "value": "significant improvement"}, {"measurement": "improvement of allodynia (50% response threshold)", "setting": "[2]; oral 20 mg/kg", "value": "significant improvement"}, {"measurement": "Chemical purity, After 6 months", "setting": "[3]; [4]", "value": 99.8, "unit": "%"}, {"measurement": "Crystal form after 6 months", "setting": "[3]; [4]", "value": "Form A"}, {"measurement": "Decomposition product increased by not less than 0.15% after 6 months", "setting": "[3]; [4]", "value": "None"}, {"measurement": "Optical purity, After 6 months", "setting": "[3]; [4]", "value": 99.0, "unit": "% ee"}, {"measurement": "Chemical purity, After 6 months", "setting": "[3]; [5]", "value": 99.8, "unit": "%"}, {"measurement": "Crystal form after 6 months", "setting": "[3]; [5]", "value": "Form A"}, {"measurement": "Decomposition product increased by not less than 0.15% after 6 months", "setting": "[3]; [5]", "value": "None"}, {"measurement": "Optical purity, After 6 months", "setting": "[3]; [5]", "value": 99.0, "unit": "% ee"}, {"measurement": "Chemical purity, After 6 months", "setting": "[3]; [6]", "value": 99.8, "unit": "%"}, {"measurement": "Crystal form after 6 months", "setting": "[3]; [6]", "value": "Form A"}, {"measurement": "Decomposition product increased by not less than 0.15% after 6 months", "setting": "[3]; [6]", "value": "None"}, {"measurement": "Optical purity, After 6 months", "setting": "[3]; [6]", "value": 99.0, "unit": "% ee"}, {"measurement": "change in the crystal form on storage", "setting": "[3]; [7]", "value": "no change was observed"}, {"measurement": "change of purity on storage", "setting": "[3]; [7]", "value": "did not change"}, {"measurement": "Chemical purity, Initial value", "setting": "[3]; before storage", "value": 99.8, "unit": "%"}, {"measurement": "Optical purity, Initial value", "setting": "[3]; before storage", "value": 98.8, "unit": "% ee"}]}]}
